This data set in a line: Clinical Example 1: pharmacokinetic assessments. The format is in vivo, human. As to conditions: plasma, noncompartmental PK analysis. The protocol: At Visit 3 (a minimum of 3 days after Visit 2), a subset of approximately 35 subjects who qualified at Visit 2 were randomized and began PK blood draws in the clinic that occurred over 24 hours for placebo, 2%, 4%, or 6% dosages of bepotastine besilate (using a randomization ratio of 1:1:1:1). There were approximately nine subjects in each of the four treatment groups. Blood sampling for PK assessments was drawn within 90 minutes (pre-dose). Subjects were dosed and additional blood samples were collected at 10, 20, 30, and 45 minutes post-dose and at 1, 1.25, 2, 3, 4, 6, 10, and 12 hours post-dose while remaining in the clinic. Subjects returned the next day for a 24 hour post-dose PK blood draw. PK blood draws at 1, 1.25, 2, 3, 4, 6, 10, and 12 hours post-dose were within a ±1 minute window and at 24 hours post dose were within a ±60 minute window.
All subjects who qualified at Visit 2 returned to the clinic for Visit 4 following a minimum ten day washout period. At Visit 4, subjects recorded individual nasal and ocular symptoms on 0-3 unit scales prior to entering the EEC and every 30 minutes for the first two hours while in the EEC, including just prior to dosing. […] At the end of Visit 4, subjects recorded reflective nasal symptom scores, summarizing their subjective opinion of each nasal and ocular symptom score (same 0-3 unit scales), over the entire post-dosing period in the EEC. […]

SMILES strings stand for the structures.

With `O=C(O)CCCN1CCC(O[C@@H](c2ccc(Cl)cc2)c2ccccn2)CC1` [bepotastine, (+)-(S)-4-[4-[(4-chlorophenyl)(2-pyridyl)methoxy]piperidino]butyric acid], the “absorption from the nasal sprays” value is reported as “absorbed quickly” and the half-life result is reported as “short”.

Values taken from patent US20120225905A1, “BEPOTASTINE COMPOSITIONS” (Mitsubishi Tanabe Pharma Corporation, priority 2010, published 2012).
